These results are taken from patent US9234025B2, “Extracellular allosteric inhibitor binding domain from a tyrosine kinase receptor” (SANOFI, priority 2009, dated 2016).

The target in one assay is FGFR2^∂23-Y328D (Homo sapiens, UniProt P21802, Y328D). As to the kind of experiment: FTIR measurement, FGFR2 Y328D mutant. Further details: FGFR2^∂23 (consisting of domain D2 and 3); made in house. The note with it: 100 μM SSR. Here is the method: Fourier transform infrared measurements were performed using a Bruker Tensor 37 FT-IR spectrometer equipped with an AquaSpec flowcell. The sample compartment was thermostatted to 25° C., 100 spectra were averaged for a good signal to noise ratio. Proteins were purified as described above. Immediately after the gelfiltration, the proteins were dialysed overnight in the same preparation of buffer (10 mM Hepes pH 7.2, 150 mM NaCl) in the presence or absence of SSR. Dialysis buffer samples were used to substract background signal. The analysis was performed using the OPUS software package, provided by Bruker. Interpretation of the results was performed as described {Barth, 2002 #60}.
Chain of FGFR2^∂23-Y328D (P21802 148-366 Y328D limits assumed): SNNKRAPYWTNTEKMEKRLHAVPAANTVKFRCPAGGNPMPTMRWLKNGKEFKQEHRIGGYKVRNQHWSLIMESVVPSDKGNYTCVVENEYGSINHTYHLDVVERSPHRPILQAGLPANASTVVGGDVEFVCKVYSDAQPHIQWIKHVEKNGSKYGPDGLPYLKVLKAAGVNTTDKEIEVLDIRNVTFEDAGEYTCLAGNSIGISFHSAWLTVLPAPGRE
We next explored whether SSR bound to amino acid residues that form part of the orthosteric site in D3 or to an alternative allosteric site. Initially, we used the molecular docking algorithms of the software packages MOLEGRO, Autodock and YASARA and available crystallographic data. […] These findings are consistent with a model whereby SSR binds to an allosteric site formed by a hydrophobic pocket near the orthosteric ligand binding site, and in which residue Tyr^328 seems to be critical for mediating the interaction between SSR to FGFR2. We also analyzed the FTIR spectrum of the aforementioned mutated FGFR2 fragments.

The next assay concerns the target T1, FGFR2^∂23 (Homo sapiens, UniProt P21802).
T1 construct: FGFR2^∂23 (consisting of domain D2 and 3); made in house
The experiment in a line: isothermal titration calorimetry (ITC), FGFR2. The format is binding. Here is the method: All calorimetric experiments were performed at 30° C. with a VP-ITC titration calorimeter (MicroCal Inc., Northampton, Mass.) as previously described^45. Titrations involved the addition of 10 μL aliquots of 1.25 mM SSR via a rotating stirrer-syringe to the solution cell containing 1.407 mL of the 10-20 μM interacting protein (i.e. FGFR2^∂123, FGFR2^∂23 and its described mutants and subdomains, FGFR3^∂123, FGF1, FGF2 and Follistatin (as negative control) at 4 min intervals. A constant stirring speed of 300 rpm was maintained and data were fitted to the standard noninteracting one site model supplied by MicroCal, with n fixed as 1.0. All measurements were performed in 10 mM HEPES pH7.2, 150 mM NaCl, and proteins were purified as previously described (Pellegrini et al., 2000). Mutagenesis was performed using the ‘site directed mutagenesis kit’ (Stratagene).
(ITC needs no label: the signal is the heat of the interaction.)

The target in another assay is T2, FGFR1 (Homo sapiens, UniProt P11362).
T2 construct: V5/His (encoded by the vector); expressed in transfected cells; host or cells: murine pre-B 300-19 cells
T2 sequence (P11362 22-822): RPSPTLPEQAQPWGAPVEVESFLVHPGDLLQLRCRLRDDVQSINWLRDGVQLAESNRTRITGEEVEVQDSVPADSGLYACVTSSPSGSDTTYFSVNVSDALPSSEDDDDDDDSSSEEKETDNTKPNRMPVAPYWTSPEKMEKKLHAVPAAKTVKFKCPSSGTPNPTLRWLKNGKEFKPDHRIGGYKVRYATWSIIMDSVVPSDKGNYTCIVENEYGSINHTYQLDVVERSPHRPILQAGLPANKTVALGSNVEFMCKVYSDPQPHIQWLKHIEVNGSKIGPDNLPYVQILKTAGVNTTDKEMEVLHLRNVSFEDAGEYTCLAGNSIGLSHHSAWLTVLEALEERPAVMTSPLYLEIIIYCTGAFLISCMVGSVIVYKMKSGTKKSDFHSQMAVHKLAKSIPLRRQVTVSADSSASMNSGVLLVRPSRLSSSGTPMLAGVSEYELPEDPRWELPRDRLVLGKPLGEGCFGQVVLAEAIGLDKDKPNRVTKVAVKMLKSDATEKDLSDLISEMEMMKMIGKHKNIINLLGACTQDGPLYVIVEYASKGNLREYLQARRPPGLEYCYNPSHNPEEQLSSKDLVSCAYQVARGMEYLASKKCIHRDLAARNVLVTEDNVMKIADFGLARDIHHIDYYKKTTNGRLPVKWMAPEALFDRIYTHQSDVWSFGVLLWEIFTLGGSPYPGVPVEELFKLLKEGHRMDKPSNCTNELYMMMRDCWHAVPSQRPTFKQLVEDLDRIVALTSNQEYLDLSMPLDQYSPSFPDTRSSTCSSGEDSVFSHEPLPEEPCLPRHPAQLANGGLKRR
As to the kind of experiment: AlexaFluor488-FGF2 binding on FGFR1-transfected 300-19 cells (flow cytometry). The note with it: SSR 300 nM; FGF2 10 ng/ml; murine pre-B 300-19 cells. Here is the method:
FGF2 was labeled with Alexa Fluor 488 C5-maleimide (Invitrogen, A10254) following purchaser recommendations.
This AF488-FGF2 was used at 10 ng/ml in binding experiments on murine pre-B 300-19 cells transfected with FGFR1 or FGFR4 constructs in pEF6-V5/His Topo plasmids (Invitrogen). SSR (300 nM final) was pre-incubating 20 min with cells in RPMI 1640 (Invitrogen, 32404-014) with 10% FCS (Hyclone, SH30070.03), 2 mM glutamine, MEM non-essential amino-acid 1× (Gibco, 11140-035), MEM sodium pyruvate 1× (Gibco, 11360-039) and […] monothioglycerol (Sigma, M6145) at 4° C. under 150 rpm agitation. Then, FGF2 (10 ng/ml final) is added for 30 min and binding is measured using a FACS Calibur flow cytometer (Beckton Dickinson). Fluorescence median for each condition is also analysed.

The next assay concerns HUVEC. As to the kind of experiment: HUVEC proliferation. The note with it: FGFR1β3c-driven; ATP content after 3 days. The format is cell-based, human. Here is the method: Confluent HUVEC cells are harvested and 5 10^4 cells in 100 μl RPMI 1640 (Invitrogen, 32404-014) with 0.5% FCS (Hyclone, SH30070.03), 2 mM glutamine, MEM non-essential amino-acid 1× (Gibco, 11140-035), MEM sodium pyruvate 1× (Gibco, 11360-039) are seeded per well in 96-well collagen 1-coated plates (Beckton Dickinson, 354650) overnight. Then, medium is removed and replace by 50 μl of medium that contains 2×FGF2 (R&D, 234-FSE-025), FGF4 (R&D, 235-F4-025) or FGF-19 (in house produced) and 50 μl of 2×SSR (200 or 600 nM). Cells were incubated in CO2 chamber at 37° C. for 3 days and proliferation is evaluated by quantifying ATP content with 100 μl of “Cell Titer Glo Luminescent cell viability” kit (Promega, G7571).

The target of assay [1] is T3, TNF-R1 extracellular protein (Homo sapiens, UniProt P19438).
T3 construct: made in house
T3 sequence (P19438 30-211 limits assumed): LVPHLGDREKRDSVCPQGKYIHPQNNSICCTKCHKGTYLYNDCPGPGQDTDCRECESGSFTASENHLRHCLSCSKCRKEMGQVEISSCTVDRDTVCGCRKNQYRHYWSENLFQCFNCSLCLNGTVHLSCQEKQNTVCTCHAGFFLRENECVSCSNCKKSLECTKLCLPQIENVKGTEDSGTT
As to the kind of experiment: STD-NMR binding assay, TNF-R1 control. The following applies: STD-NMR specificity control.

The target in another assay is T4, FGFR2 (Homo sapiens, UniProt P21802).
T4 construct: or the expression of the entire intact receptor in its native environment
T4 sequence (P21802 22-821): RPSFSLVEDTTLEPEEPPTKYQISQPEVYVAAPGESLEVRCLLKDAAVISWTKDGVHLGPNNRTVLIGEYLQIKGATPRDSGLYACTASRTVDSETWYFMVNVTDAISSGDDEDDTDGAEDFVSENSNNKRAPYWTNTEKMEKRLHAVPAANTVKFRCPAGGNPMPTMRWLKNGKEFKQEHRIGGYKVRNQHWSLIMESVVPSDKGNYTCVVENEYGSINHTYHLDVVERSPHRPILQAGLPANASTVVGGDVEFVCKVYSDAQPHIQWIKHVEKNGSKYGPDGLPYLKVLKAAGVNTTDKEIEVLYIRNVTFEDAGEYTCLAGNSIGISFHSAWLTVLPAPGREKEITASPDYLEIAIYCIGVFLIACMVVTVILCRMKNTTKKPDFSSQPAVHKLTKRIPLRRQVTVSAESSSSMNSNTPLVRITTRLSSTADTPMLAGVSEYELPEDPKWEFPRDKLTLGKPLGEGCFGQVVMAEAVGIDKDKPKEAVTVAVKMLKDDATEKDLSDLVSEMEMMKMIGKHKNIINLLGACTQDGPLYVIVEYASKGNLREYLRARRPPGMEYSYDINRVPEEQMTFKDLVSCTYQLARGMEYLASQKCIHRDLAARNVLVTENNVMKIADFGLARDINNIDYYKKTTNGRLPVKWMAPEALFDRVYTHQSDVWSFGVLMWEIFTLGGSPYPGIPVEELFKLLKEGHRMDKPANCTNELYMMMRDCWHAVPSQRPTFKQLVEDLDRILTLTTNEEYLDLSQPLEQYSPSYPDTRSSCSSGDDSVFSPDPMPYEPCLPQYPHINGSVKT
As to the kind of experiment: FGFR2 multimerization. It is filed as biochemical.

The next assay addresses T5, FGFR4 (Homo sapiens, UniProt P22455).
T5 construct: expressed in transfected cells; host or cells: murine pre-B 300-19 cells
The experiment in a line: FGF2 binding to FGFR4 in intact cells. The following applies: receptor expressed in intact cells.

The target of another assay is T6, FGFR1 (PAE-FGFR1) (Homo sapiens, UniProt P11362).
T6 construct: or the expression of the entire intact receptor in its native environment; expressed in transfected cells; host or cells: porcine aortic endothelial cells (PAE)
T6 sequence (P11362 22-822): as the sequence (P11362 22-822) above
As to the kind of experiment: I125-FGF2 binding assay on PAE-FGFR1 cells. The following applies: porcine aortic endothelial cells overexpressing FGFR1; SSR even at high μM concentrations.

For assay [2], the system named is human umbilical vein endothelial cells (HUVECs). As to the kind of experiment: I125-FGF2 binding assay on HUVECs. The following applies: intact cells, SSR even at high μM concentrations.
In assay [3] the target is T7, FGFR1-ECD (FGFR1^∂123/Fc) (Homo sapiens, UniProt P11362).
T7 construct: FGFR1-ECD, consisting of the three Ig-like domains D1-3, coupled to a Fc-fragment (FGFR1^∂123/Fc)
T7 sequence (P11362 22-376 limits assumed): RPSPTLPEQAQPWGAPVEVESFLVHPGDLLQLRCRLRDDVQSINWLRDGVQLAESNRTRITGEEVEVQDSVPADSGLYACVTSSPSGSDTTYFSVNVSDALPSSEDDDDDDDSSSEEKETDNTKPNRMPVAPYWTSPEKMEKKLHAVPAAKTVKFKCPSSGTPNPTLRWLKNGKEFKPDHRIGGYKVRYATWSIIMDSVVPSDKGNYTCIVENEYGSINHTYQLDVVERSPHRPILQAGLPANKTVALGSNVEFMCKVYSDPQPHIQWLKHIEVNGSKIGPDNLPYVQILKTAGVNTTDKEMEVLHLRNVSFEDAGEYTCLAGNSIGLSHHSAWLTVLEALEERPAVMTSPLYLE
As to the kind of experiment: scintillation proximity binding assay (SPA), 125I-FGF2 to FGFR1-ECD/Fc. An excerpt:
The objective of this study was to develop low molecular weight chemical compounds that bind to the FGFR extracellular domain (ECD) and inhibit FGFR signaling. Given that it is challenging to envisage how a small compound could interact with a much larger polypeptide (i.e. FGF) via simple steric hindrance for the orthosteric site, multiple ligand binding assay formats were utilized to determine whether any identified compounds were acting orthosterically of via an allosteric mechanism. We initially developed a high-throughput scintillation proximity binding assay (SPA) to identify compounds that inhibit the binding of ^125I-FGF2 to FGFR1-ECD, consisting of the three Ig-like domains D1-3, coupled to a Fc-fragment (FGFR1^∂123/Fc).

T1 sequence (P21802 148-366 limits assumed): as the sequence (P21802 148-366 Y328D limits assumed) above, with D181Y counted along it
T5 sequence (P22455 22-802): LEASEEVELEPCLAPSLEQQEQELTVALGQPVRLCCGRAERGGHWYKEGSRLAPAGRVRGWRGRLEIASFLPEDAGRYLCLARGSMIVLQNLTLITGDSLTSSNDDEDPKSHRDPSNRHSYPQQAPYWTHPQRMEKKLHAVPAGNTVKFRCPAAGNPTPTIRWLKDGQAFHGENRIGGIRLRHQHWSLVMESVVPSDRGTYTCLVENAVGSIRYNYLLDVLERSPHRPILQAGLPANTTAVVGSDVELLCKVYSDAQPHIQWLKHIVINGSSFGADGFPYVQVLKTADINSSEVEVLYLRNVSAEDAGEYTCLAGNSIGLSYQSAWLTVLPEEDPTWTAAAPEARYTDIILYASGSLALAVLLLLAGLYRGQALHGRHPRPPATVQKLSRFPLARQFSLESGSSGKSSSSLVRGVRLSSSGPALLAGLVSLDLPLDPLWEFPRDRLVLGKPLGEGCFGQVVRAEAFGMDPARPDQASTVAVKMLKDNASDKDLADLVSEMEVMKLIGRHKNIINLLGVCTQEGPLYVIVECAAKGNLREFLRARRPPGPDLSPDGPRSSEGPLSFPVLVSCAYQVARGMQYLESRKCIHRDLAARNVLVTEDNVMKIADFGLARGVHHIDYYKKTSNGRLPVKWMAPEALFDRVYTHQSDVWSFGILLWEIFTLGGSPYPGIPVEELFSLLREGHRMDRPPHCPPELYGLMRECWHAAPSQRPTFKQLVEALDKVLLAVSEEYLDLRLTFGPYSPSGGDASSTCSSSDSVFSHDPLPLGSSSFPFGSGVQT

On to `COc1c(C)c(C(=O)c2ccc(N)c(C(=O)[O-])c2)n2ccccc12.[Na+]` [SSR], for which the “change of FTIR spectrum (conformational change)” value on FGFR2^∂23-Y328D was “failed to induce this change”. Also, the “binding to FGFR2” value at FGFR2^∂23 was “bound”. Further, the “competition with AlexaFluor488-labelled FGF2 binding to FGFR1” value on FGFR1 is recorded as “not able to compete this binding”. Moreover, the “FGF2-induced HUVEC proliferation” value in the assay on HUVEC was “able to inhibit FGF2-induced HUVEC proliferation”. Further, the “binding to TNF-R1 extracellular protein” value in assay [1] is “no binding is observed”. In addition, on FGFR2, the “FGFR2 dimerization (multimerization)” value is “not able to inhibit”. In addition, the “binding of FGF2 to FGFR4” value at FGFR4 was “failed to antagonize”. Besides, the “inhibition of I^125-FGF2 binding to its receptor” value (at FGFR1 (PAE-FGFR1); in assay [2]) was “unable to inhibit I^125-FGF2 binding” each time. For the same compound, the “inhibition of ^125I-FGF2 binding to FGFR1-ECD” value in assay [3] is given as “inhibited ^125I-FGF2 binding”.
